Data as given in patent publication US20220257491A1, “Prebiotic Oral Care Compositions and Methods” (Colgate-Palmolive Company, priority 2021, published 2022).
Marks after values point to notes of the source that are not given here.

Tests used:
Type in all cases: cell-based
[1] = system: F. nucleatum; experiment: Multi-species biofilm composition: absolute abundance of F. nucleatum; conditions: for Absolute abundance Fn (F. nucleatum): mean±SD n=3
Description: (§1) Biofilms are grown vertically on Calcium Deficient Hydroxyapatite (CAD-HA) disks (Hitemco Medical, Old Bethpage, USA) using the Amsterdam Active Adhesion model. Biofilms are allowed to establish during 24 h (37° C., 170 rpm) under micro-aerophilic conditions (6% O2, 7% CO2, 7% H2, 80% N2). After this 24 h, disks are rinsed 3 times a day for 3 minutes (RT, 250 rpm), for 3 consecutive days, by transferring the lid containing the disks to a new 24-well plate containing 2 mL/well of the appropriate substrate solution. As a negative control, PBS (pH 5.7) without substrate supplementation is used. After each rinsing step, disks are shortly dip-rinsed in a new 24-well plate containing fresh modified BHI medium (2 mL/well) to remove remaining substrate traces. Subsequently, the lid is transferred to another 24-well plate containing fresh modified BHI medium (2 mL/well), followed by incubation (micro-aerophilic, 37° C., 170 rpm) until the next rinsing step.
(§2) NADM, N-acetyl-D-glucosamine (“NADG”) and D-(+)-mannose are selected to determine their effects on multi-species biofilm composition. […] decrease in absolute numbers in at least four of the pathogenic bacterial species tested in the assay, compared to the control, the results of which are described in Table 1 below. Absolute abundances of bacterial species are shown as mean±SD (n=3) logarithmic values of the genome equivalents per millilitre (log(Geq/mL)).

[2] = system: P. gingivalis; experiment: Multi-species biofilm composition: absolute abundance of P. gingivalis; conditions: for Absolute abundance Pg (P. gingivalis): mean±SD n=3
Description: as §1, §2

[3] = system: S. mutans; experiment: Multi-species biofilm composition: absolute abundance of S. mutans; conditions: mean±SD n=3
Description: as §1
(§3) NADM, N-acetyl-D-glucosamine (“NADG”) and D-(+)-mannose are selected to determine their effects on multi-species biofilm composition. Repeated rinsing of the biofilms with the substrates at a concentration of 1M results in a significant decrease in absolute numbers in at least four of the pathogenic bacterial species tested in the assay, compared to the control, the results of which are described in Table 1 below. Absolute abundances of bacterial species are shown as mean±SD (n=3) logarithmic values of the genome equivalents per millilitre (log(Geq/mL)).

[4] = system: A. naeslundii; experiment: Multi-species biofilm composition: absolute abundance of A. naeslundii; conditions: mean±SD n=3
Description: as §1, §3

[5] = system: S. gordonii; experiment: Multi-species biofilm composition: absolute abundance of S. gordonii; conditions: mean±SD n=3
Description: as §1, §3

[6] = system: S. oralis; experiment: Multi-species biofilm composition: absolute abundance of S. oralis; conditions: mean±SD n=3
Description: as §1, §2

[7] = system: S. sanguinis; experiment: Multi-species biofilm composition: absolute abundance of S. sanguinis; conditions: mean±SD n=3
Description: as §1, §2

[8] = system: A. actinomycetemcomitans virulence genes; experiment: Multi-species biofilm virulence gene expression, SYBR RT-qPCR: A. actinomycetemcomitans; conditions: for Fold Change in virulence gene expression: aae / Fold Change in virulence gene expression: apaH / Fold Change in virulence gene expression: cdtB / Fold Change in virulence gene expression: emaA / Fold Change in virulence gene expression: flp / Fold Change in virulence gene expression: ltxA / Fold Change in virulence gene expression: omp29 / Fold Change in virulence gene expression: omp100 / Fold Change in virulence gene expression: orf859 / Fold Change in virulence gene expression: pgA / Fold Change in virulence gene expression: vapA / Fold Change in virulence gene expression: vppA: relative to control (=1), 2^-ΔΔCt, geometric mean n=3
Description: as §1
(§4) The expression of 33 virulence genes from 4 periodontal pathogens is analysed to evaluate the relative virulence of the substrate-treated biofilms. For all three substrates, virulence gene expression is determined relatively to the control, and these values are also compared between substrates when this is relevant (Tables 5a-5d).

[9] = system: P. intermedia virulence genes; experiment: Multi-species biofilm virulence gene expression, SYBR RT-qPCR: P. intermedia; conditions: for Fold Change in virulence gene expression: DnaJ / Fold Change in virulence gene expression: DnaK / Fold Change in virulence gene expression: ECF / Fold Change in virulence gene expression: GroES / Fold Change in virulence gene expression: HtpG / Fold Change in virulence gene expression: KpsD / Fold Change in virulence gene expression: adpc / Fold Change in virulence gene expression: clpB / Fold Change in virulence gene expression: inpA / Fold Change in virulence gene expression: phg: relative to control (=1), 2^-ΔΔCt, geometric mean n=3
Description: as §1, §4

[10] = system: human oral keratinocytes (HOK-18A); experiment: Inflammatory mediator gene expression in keratinocytes exposed to substrate-treated biofilms; conditions: for Fold change in inflammatory mediator gene expression: IL-1β / Fold change in inflammatory mediator gene expression: IL-6 / Fold change in inflammatory mediator gene expression: IL-8 / Fold change in inflammatory mediator gene expression: MMP-8 / Fold change in inflammatory mediator gene expression: TNF-α: relative to control (=1), geometric mean (95% C.I.) n=3
Description: Cultures of immortalized human oral keratinocytes (HOK-18A) are grown. The relative inflammatory potential of the substrate-treated multi-species biofilms is evaluated by analyzing the expression of five inflammatory mediator genes in human oral keratinocytes (HOKs) exposed to the substrate-treated biofilms. […] The IL-8 levels in the cellular supernatant are determined as well. RNA is converted to cDNA and relative expression of inflammatory mediator genes is determined as described above with respect to the cellular housekeeping gene (3-actin.
In HOKs exposed to substrate-treated (substrate concentrations of 1 M) multi-species biofilms, mostly decreases in inflammatory mediator gene expression are observed and measured via SYBR RT-qPCR, the results of which are detailed in Table 6.
All substrates are dissolved in PBS at a concentration of 1 M (upper part) or 1% (w/v) (lower part). Values between 0 and 1 represent relative downregulation, values >1 represent relative upregulation. […] For such values, statistically significant differences between two experimental conditions are marked with ‘#1’ (vs. NADM), ‘#2’ (vs. NADG), ‘#3’ (vs. D-(+)-mannose) (P<0.05).

[11] = biofilm rinsed with substrate 1%
[12] = biofilm rinsed with substrate 1M

O=C[C@@H](O)[C@@H](O)[C@H](O)[C@H](O)CO [D-mannose, D-(+)-mannose]
Decrease in F. nucleatum vs control ([1]; substrate 1%(w/v)): 1.1 log(Geq/mL)
Absolute abundance Fn (F. nucleatum) ([1]; substrate 1%(w/v) in PBS): 8.66 ± 0.29 log(Geq/mL)
Absolute abundance Fn (F. nucleatum) ([1]; substrate 1 M in PBS): 6.59 ± 0.36 log(Geq/mL)
Absolute abundance Pg (P. gingivalis) ([2]; substrate 1%(w/v) in PBS): 7.08 ± 0.17 log(Geq/mL)
Difference in P. gingivalis amounts compared to NADG ([2]; substrate 1 M): −1.25 log(Geq/mL)
Absolute abundance Pg (P. gingivalis) ([2]; substrate 1 M in PBS): 2.75 ± 0.08*^, #2 log(Geq/mL)
Absolute abundance S. mutans ([3]; substrate 1%(w/v) in PBS): 7.34 ± 0.12 log(Geq/mL)
Absolute abundance S. mutans ([3]; substrate 1 M in PBS): 8.60 ± 0.09 log(Geq/mL)
Absolute abundance An (A. naeslundii) ([4]; substrate 1%(w/v) in PBS): 7.59 ± 0.05 log(Geq/mL)
Absolute abundance An (A. naeslundii) ([4]; substrate 1 M in PBS): 5.54 ± 0.24 log(Geq/mL)
Absolute abundance S. gord. (S. gordonii) ([5]; substrate 1%(w/v) in PBS): 8.29 ± 0.11 log(Geq/mL)
Absolute abundance S. gord. (S. gordonii) ([5]; substrate 1 M in PBS): 9.19 ± 0.39 log(Geq/mL)
Absolute abundance S. oralis ([6]; substrate 1%(w/v) in PBS): 6.27 ± 0.21 log(Geq/mL)
Absolute abundance S. oralis ([6]; substrate 1 M in PBS): 6.83 ± 0.09 log(Geq/mL)
Absolute abundance S. sang. (S. sanguinis) ([7]; substrate 1%(w/v) in PBS): 8.19 ± 0.11 log(Geq/mL)
Absolute abundance S. sang. (S. sanguinis) ([7]; substrate 1 M in PBS): 7.39 ± 0.89 log(Geq/mL)
Fold Change in virulence gene expression: aae ([8]; substrate 1% (w/v)): 1.06 fold
Fold Change in virulence gene expression: apaH ([8]; substrate 1% (w/v)): 0.72 fold
Fold Change in virulence gene expression: cdtB ([8]; substrate 1% (w/v)): 0.36 fold
Fold Change in virulence gene expression: emaA ([8]; substrate 1% (w/v)): 0.41 fold
Fold Change in virulence gene expression: flp ([8]; substrate 1% (w/v)): 1.26 fold
Fold Change in virulence gene expression: ltxA ([8]; substrate 1% (w/v)): 0.17 fold
Fold Change in virulence gene expression: omp29 ([8]; substrate 1% (w/v)): 0.65 fold
Fold Change in virulence gene expression: omp100 ([8]; substrate 1% (w/v)): 0.34 fold
Fold Change in virulence gene expression: orf859 ([8]; substrate 1% (w/v)): 1.46 fold
Fold Change in virulence gene expression: pgA ([8]; substrate 1% (w/v)): 0.55 fold
Fold Change in virulence gene expression: vapA ([8]; substrate 1% (w/v)): 0.39 fold
Fold Change in virulence gene expression: vppA ([8]; substrate 1% (w/v)): 0.53 fold
A. actinomycetemcomitans gene expression decrease: cdtB, emaA, ltxA, omp100 and vapA ([8]; substrate 1%(w/v)): 2.4- to 5.9 fold
Fold Change in virulence gene expression: aae ([8]; substrate 1M): 0.16 fold
Fold Change in virulence gene expression: apaH ([8]; substrate 1M): 0.12 fold
Fold Change in virulence gene expression: cdtB ([8]; substrate 1M): 0.13 fold
Fold Change in virulence gene expression: emaA ([8]; substrate 1M): 0.12 fold
Fold Change in virulence gene expression: flp ([8]; substrate 1M): 1.57 fold
Fold Change in virulence gene expression: ltxA ([8]; substrate 1M): 0.02 fold
Fold Change in virulence gene expression: omp29 ([8]; substrate 1M): 0.27 fold
Fold Change in virulence gene expression: omp100 ([8]; substrate 1M): 0.26 fold
Fold Change in virulence gene expression: orf859 ([8]; substrate 1M): 0.03 fold
Fold Change in virulence gene expression: pgA ([8]; substrate 1M): 5.70 fold
Fold Change in virulence gene expression: vapA ([8]; substrate 1M): 0.62 fold
Fold Change in virulence gene expression: vppA ([8]; substrate 1M): 0.58 fold
Relative P. intermedia virulence gene expression, downregulation ([9]; substrate 1%(w/v), D-(+)-mannose for 3 genes): 2- to 2.7 fold
Fold Change in virulence gene expression: DnaJ ([9]; substrate 1%): 0.37 fold
Fold Change in virulence gene expression: DnaK ([9]; substrate 1%): 0.63 fold
Fold Change in virulence gene expression: ECF ([9]; substrate 1%): 0.6 fold
Fold Change in virulence gene expression: GroES ([9]; substrate 1%): 0.51 fold
Fold Change in virulence gene expression: HtpG ([9]; substrate 1%): 0.46 fold
Fold Change in virulence gene expression: KpsD ([9]; substrate 1%): 0.96 fold
Fold Change in virulence gene expression: adpc ([9]; substrate 1%): 0.54 fold
Fold Change in virulence gene expression: clpB ([9]; substrate 1%): 1.00 fold
Fold Change in virulence gene expression: inpA ([9]; substrate 1%): 0.37 fold
Fold Change in virulence gene expression: phg ([9]; substrate 1%): 0.50 fold
Fold Change in virulence gene expression: DnaJ ([9]; substrate 1M): 0.03 fold
Fold Change in virulence gene expression: DnaK ([9]; substrate 1M): 0.44 fold
Fold Change in virulence gene expression: ECF ([9]; substrate 1M): 1.47 fold
Fold Change in virulence gene expression: GroES ([9]; substrate 1M): 0.37 fold
Fold Change in virulence gene expression: HtpG ([9]; substrate 1M): 0.29 fold
Fold Change in virulence gene expression: KpsD ([9]; substrate 1M): 0.42 fold
Fold Change in virulence gene expression: adpc ([9]; substrate 1M): 0.27 fold
Fold Change in virulence gene expression: clpB ([9]; substrate 1M): 0.14 fold
Fold Change in virulence gene expression: inpA ([9]; substrate 1M): 0.47 fold
Fold Change in virulence gene expression: phg ([9]; substrate 1M): 0.10 fold
Fold change in inflammatory mediator gene expression: IL-1β [10, 11]: 0.79 (0.43-1.48) fold
Fold change in inflammatory mediator gene expression: IL-6 [10, 11]: 0.79 (0.60-1.06) fold
Fold change in inflammatory mediator gene expression: IL-8 [10, 11]: 1.22 (0.79-1.86) fold
Fold change in inflammatory mediator gene expression: MMP-8 [10, 11]: 0.40 (0.27-0.58)* fold
Fold change in inflammatory mediator gene expression: TNF-α [10, 11]: 0.770.48-1.23) fold
Fold change in inflammatory mediator gene expression: IL-1β [10, 12]: 0.81 (0.59-1.12) fold
Fold change in inflammatory mediator gene expression: IL-6 [10, 12]: 0.63 (0.41-0.97) fold
Fold change in inflammatory mediator gene expression: IL-8 [10, 12]: 0.12 (0.06-0.27)* fold
Fold change in inflammatory mediator gene expression: MMP-8 [10, 12]: 1.25 (1.10-1.42) fold
Fold change in inflammatory mediator gene expression: TNF-α [10, 12]: 0.77 (0.37-1.60) fold
Decreased MMP-8 gene expression ([10]; substrate 1%(w/v)): 2.5 fold
